Data: PubChem BioAssay (NCI)
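Briefly, cells in 96-well plates were exposed to five compound concentrations for 48 h, and endpoints were estimated by linear interpolation. Abbreviation: GI50, concentration required for 50% inhibition of growth. Definition used: TGI = concentration required for complete inhibition of growth.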

How the values were obtained:
Assay in all cases: growth of human tumour cells (NCI), 48 h; in the data active = GI50 below about 0.43 µM; inactive = the rest
[1] = system: IGROV1 ovarian
[2] = system: COLO 205 colon
[3] = system: BT-549 breast
[4] = system: SK-MEL-2 melanoma
[5] = system: HOP-92 NSCLC
[6] = system: NCI-H522 lung
[7] = system: NCI/ADR-RES ovarian
[8] = system: RXF 393 renal
[9] = system: OVCAR-3 ovarian
[10] = system: HCT-116 colon
[11] = system: A549 NSCLC
[12] = system: HL-60(TB) leukemia
[13] = system: PC-3 prostate
[14] = system: U251 CNS
[15] = system: SF-295 CNS
[16] = system: OVCAR-4 ovarian
[17] = system: MDA-MB-435
[18] = system: MOLT-4 leukemia
[19] = system: MALME-3M melanoma
[20] = system: SK-MEL-5 melanoma
[21] = system: HS 578T breast
[22] = system: OVCAR-5 ovarian
[23] = system: NCI-H460 lung
[24] = system: DU-145 prostate
[25] = system: UACC-62 melanoma
[26] = system: MDA-MB-231 breast
[27] = system: MCF7 breast
[28] = system: OVCAR-8 ovarian
[29] = system: HT29 colon
[30] = system: SNB-19 CNS
[31] = system: CAKI-1 renal
[32] = system: UO-31 renal
[33] = system: K-562 leukemia
[34] = system: TK-10 renal
[35] = system: 786-0 renal
[36] = system: HOP-62 NSCLC
[37] = system: T-47D breast
[38] = system: UACC-257 melanoma
[39] = system: SK-OV-3 ovarian
[40] = system: ACHN renal
[41] = system: HCT-15 colon
[42] = system: NCI-H23 lung
[43] = system: SNB-75 CNS
[44] = system: KM12 colon
[45] = system: SF-268 CNS
[46] = system: M14 melanoma
[47] = system: RPMI-8226 leukemia
[48] = system: SR leukemia
[49] = system: SK-MEL-28 melanoma
[50] = system: SF-539 CNS
[51] = system: SW-620 colon
[52] = system: NCI-H226 lung
[53] = system: HCC-2998 colon
[54] = system: EKVX NSCLC
[55] = system: A498 renal
[56] = system: CCRF-CEM leukemia
[57] = system: SN12C renal
[58] = system: LOX IMVI melanoma

O=[N+]([O-])c1ccc(/C=C(/c2ccc([N+](=O)[O-])o2)S(=O)(=O)c2ccccc2)cc1
98.3 µM: TGI [50]
87.5 µM: TGI [19]
> 100 µM: TGI [1] | TGI [2] | TGI [3] | TGI [4] | TGI [5] | TGI [6] | TGI [7] | TGI [8] | TGI [9] | TGI [10] | TGI [11] | TGI [13] | TGI [14] | TGI [15] | TGI [16] | TGI [17] | TGI [21] | TGI [22] | TGI [23] | TGI [24] | TGI [27] | TGI [28] | TGI [29] | TGI [30] | TGI [31] | TGI [32] | TGI [33] | TGI [34] | TGI [35] | TGI [36] | TGI [37] | TGI [38] | TGI [39] | TGI [40] | TGI [42] | TGI [43] | TGI [44] | TGI [45] | TGI [46] | TGI [49] | TGI [51]
34.3 µM: TGI [20]
31.4 µM: TGI [47]
75.7 µM: TGI [25]
88.2 µM: TGI [26]
36.5 µM: TGI [48]
74.1 µM: TGI [12]
88.7 µM: TGI [41]
75 µM: TGI [52]
37.5 µM: TGI [18]

CCCCCCCCCCCCCCCCOP(=O)([O-])OCC[N+](C)(C)C1CC(C)(C)N(O)C(C)(C)C1
> 100 µM: TGI [2] | TGI [3] | TGI [4] | TGI [5] | TGI [6] | TGI [7] | TGI [8] | TGI [53] | TGI [9] | TGI [10] | TGI [11] | TGI [13] | TGI [14] | TGI [15] | TGI [16] | TGI [17] | TGI [19] | TGI [20] | TGI [21] | TGI [22] | TGI [23] | TGI [24] | TGI [25] | TGI [26] | TGI [27] | TGI [28] | TGI [29] | TGI [30] | TGI [31] | TGI [32] | TGI [34] | TGI [35] | TGI [36] | TGI [37] | TGI [38] | TGI [39] | TGI [54] | TGI [40] | TGI [41] | TGI [42] | TGI [43] | TGI [44] | TGI [45] | TGI [46] | TGI [48] | TGI [55] | TGI [50] | TGI [51] | TGI [52]

FC(F)(F)c1cccc(CNC2CCN(CCc3ccccc3)CC2)c1
47.1 µM: TGI [5]
44.4 µM: TGI [6]
31 µM: TGI [19]
30.8 µM: TGI [17]
34.3 µM: TGI [2]
46.1 µM: TGI [29]
76.7 µM: TGI [10]
43.8 µM: TGI [28]
35.6 µM: TGI [14]
56.6 µM: TGI [44]
30.7 µM: TGI [25]
42.9 µM: TGI [33]
30.2 µM: TGI [50]
31.7 µM: TGI [49]
> 100 µM: TGI [1] | TGI [3] | TGI [7] | TGI [9] | TGI [11] | TGI [13] | TGI [16] | TGI [22] | TGI [57] | TGI [24] | TGI [30] | TGI [31] | TGI [32] | TGI [34] | TGI [36] | TGI [39] | TGI [40] | TGI [41] | TGI [42] | TGI [45] | TGI [51] | TGI [52]
29.1 µM: TGI [58]
32.6 µM: TGI [35]
39.6 µM: TGI [23]
39.5 µM: TGI [8]
37.2 µM: TGI [53]
41.6 µM: TGI [48]
70.4 µM: TGI [18]
49 µM: TGI [12]
57.5 µM: TGI [21]
33.6 µM: TGI [43]
33.4 µM: TGI [38]
52.9 µM: TGI [37]
75.8 µM: TGI [56]
35.4 µM: TGI [15]
34.6 µM: TGI [27]
47.2 µM: TGI [4]
24.7 µM: TGI [20]
inactive: GI50 [1] 55.9 µM | GI50 [2] 16.9 µM | GI50 [3] 24.8 µM | GI50 [4] 23.5 µM | GI50 [5] 11.2 µM | GI50 [6] 20.9 µM | GI50 [7] 41.9 µM | GI50 [8] 12.9 µM | GI50 [53] 17.7 µM | GI50 [9] 32.6 µM | GI50 [10] 22.1 µM | GI50 [11] 40.3 µM | GI50 [12] 20.9 µM | GI50 [13] 32 µM | GI50 [14] 15.6 µM | GI50 [15] 17.2 µM | GI50 [16] 23.1 µM | GI50 [17] 15.9 µM | GI50 [18] 20.5 µM | GI50 [56] 27 µM | GI50 [19] 16 µM | GI50 [20] 12.3 µM | GI50 [21] 17.7 µM | GI50 [22] 27.2 µM | GI50 [57] 55.6 µM | GI50 [23] 19.1 µM | GI50 [24] 46.3 µM | GI50 [25] 13.9 µM | GI50 [26] 12.6 µM | GI50 [27] 16 µM | GI50 [28] 18.2 µM | GI50 [29] 13.5 µM | GI50 [30] 30.8 µM | GI50 [31] 22.4 µM | GI50 [32] 17 µM | GI50 [33] 15.5 µM | GI50 [34] 30.7 µM | GI50 [35] 14.6 µM | GI50 [36] 37.5 µM | GI50 [37] 20 µM | GI50 [38] 17.2 µM | GI50 [39] 38.9 µM | GI50 [40] 33.2 µM | GI50 [41] 23.3 µM | GI50 [42] 51.8 µM | GI50 [43] 11.7 µM | GI50 [44] 22.5 µM | GI50 [45] 40.3 µM | GI50 [47] 22.6 µM | GI50 [48] 15.1 µM | GI50 [49] 16 µM | GI50 [50] 15.3 µM | GI50 [51] 36.9 µM | GI50 [58] 15.5 µM | GI50 [52] 62.4 µM
51.5 µM: TGI [47]
35.2 µM: TGI [26]
